Reference: patent EP0340198B1, “Immunoassay for the detection of alpha-haloacetamides” (priority 1988, dated 1989)

Legend:
[1] = tested on: antibodies isolated from the serum of the first bleed of the rabbit; test: affinity column binding of 14C-labeled analytes from aqueous solution; conditions: for binding by the affinity column: 14C-labeled analogs, test of non-specific binding
Method: (§1) Affinity Chromatography. The preparation of affinity columns using rabbit antisera was as follows: The rabbit IgG's were purified by passing 5 mL of the antiserum through a column containing 5 mL of the swelled protein A-agarose gel. By monitoring the absorbance at 280 nm in the column effluent, the non-bound proteins were removed by washing with PBS, and the IgG's were then eluted with acetic acid at pH 2.3 (0.58% acetic acid and 0.15 M NaCl). The fractions containing the IgG's were combined and neutralized; based on the UV absorbance at 280 nm (absorbance/1.4 = mg/mL protein), approximately 33 mg of IgG were isolated from 5 mL of serum, which was then lyophilized and stored at -20°C. The reusable protein A-agarose column was stored in PBS containing 0.02% sodium azide at 4°C.
(§2) The protein A-purified IgG was immobilized onto Affigel-10 affinity support. Affigel-10 (5 mL) was washed 3 times with isopropyl alcohol and 3 times with cold distilled water in a Buchner funnel. The gel was then added to a solution of IgG (3 mL in 0.1 M HEPES buffer, pH 7.5) at 4°C. Following 4 hrs of stirring, the gel was precipitated by gentle centrifugation and washed with HEPES buffer (3 x 3 mL). The remaining active sites on the gel were blocked by resuspending the gel in water (2 mL) and adding ethanolamine HCl (0.5 mL, 1M), and stirring the mixture at 22°C for 1 hr. The affinity column was useful in adsorbing alachlor and other analytes from aqueous solutions. After binding the alachlor, the column was washed with water (2 mL/min) to remove unbound material and alachlor was eluted with 75% aqueous methanol.
Using the antibodies isolated from the serum of the first bleed of the rabbit, an affinity column for alachlor was constructed to study its utility as an isolation and purification tool. The IgG's in the serum of the rabbit immunized with the alachlor-IgG conjugate were purified with a protein A-agarose column. The purified IgG was then immobilized onto the Affigel-10 support. Alachlor (¹⁴C-labeled) in aqueous solution was passed through the column with a flow rate of 2 mL/min; the column was washed with water and eluted with 75% aqueous methanol. The radioactivity in the wash and eluent were determined by liquid scintillation counting. […] The capacity of the column was less than 1 µg, and once this level was exceeded, alachlor no longer bound to the column. The recovery of applied radioactivity generally ranged from 80% to 100%. In a second experiment, alachlor (0.5 µg) was dissolved into increasing volumes of water ranging from 1 mL to 100 mL.
To eliminate the possibility of non-specific binding of alachlor to the affinity column, other ¹⁴C-labeled analogs were also studied. These included acetanilide herbicides butachlor, acetochlor, metolachlor, and propachlor and the previously mentioned alachlor metabolites mercapturate and its methyl ester. The affinity column bound butachlor and acetochlor, but not metolachlor, propachlor, or mercapturate.

[2] = tested on: affinity column prepared from the serum of the first bleed of the rabbit immunized with the alachlor-IgG conjugate; test: affinity column extraction of alachlor and analogs from human urine; format: binding
Method: as §1, with “The fractions containing the IgG's were combined and neutralized; based on the UV absorbance at 280 nm (absorbance/1.4 = mg/mL protein), approximately 33 mg of IgG were isolated from 5 mL of serum, which was then lyophilized and stored at -20°C.” left out
as §2, with “The affinity column was useful in adsorbing alachlor and other analytes from aqueous solutions.” left out

affinity column = affinity column extraction of alachlor from rat urine containing alachlor metabolites; format: binding, rabbit; conditions: 0.5 µg/2 mL Urine
Method: as §1
as §2, with “The affinity column was useful in adsorbing alachlor and other analytes from aqueous solutions. After binding the alachlor, the column was washed with water (2 mL/min) to remove unbound material and alachlor was eluted with 75% aqueous methanol.” left out

## CCOCN(C(=O)CCl)c1c(C)cccc1CC [Acetochlor, acetochlor]
[1]
  binding by the affinity column: bound
[2]; 1.0 µg/2 mL human urine
  % 14C Eluent (75% CH3OH): 38.0%
  % 14C Wash (H2O): 61.0%

## CCc1cccc(CC)c1N(COC)C(=O)CCl [Alachlor, α-chloro-2′,6′-diethyl-N-methoxymethyl acetanilide]
[1]; 0.5 µg per 1 mL to 0.5 µ/50 mL (0.5 ppm to 10 ppb) in water
  extraction of alachlor by the column: effectively extracted
[1]; 0.5 µg/100 mL (5 ppb) in water
  efficiency of alachlor extraction by the column reduced by: 50%
[1]; alachlor
  capacity of the column: less than 1 µg
[2]; 0.1 µg/2 mL human urine
  % 14C Eluent (75% CH3OH): 123.0%
  % 14C Wash (H2O): 20.0%
[2]; 0.6 µg/2 mL human urine
  % 14C Eluent (75% CH3OH): 69.0%
  % 14C Wash (H2O): 11.0%
[2]; 1.4 µg/2 mL human urine
  % 14C Eluent (75% CH3OH): 48.0%
  % 14C Wash (H2O): 37.0%
Affinity column
  % 14C Eluent (75% CH3OH): 83.3%
  % 14C Wash (H2O): 14.7%

## CC(C)N(C(=O)CCl)c1ccccc1 [Propachlor, propachlor]
[1]
  binding by the affinity column: not
[2]; 1.2 µg/2 mL human urine
  % 14C Eluent (75% CH3OH): 11.0%
  % 14C Wash (H2O): 88.0%
